Experimental data published in US8735406B2, “8-oxodihydropurine derivative” (Dainippon Sumitomo Pharma Co., Ltd., priority 2009, dated 2014).
Each block holds one compound with its values, some of them ahead of it.

Target: T1, FAAH (Rattus norvegicus, UniProt P97612)
T1 construct: Preparation of Rat Brain Membranes Preparations (FAAH Enzyme Solution); from tissue; host or cells: rat cerebrum (brain membrane preparation)
T1 sequence (P97612 1-579): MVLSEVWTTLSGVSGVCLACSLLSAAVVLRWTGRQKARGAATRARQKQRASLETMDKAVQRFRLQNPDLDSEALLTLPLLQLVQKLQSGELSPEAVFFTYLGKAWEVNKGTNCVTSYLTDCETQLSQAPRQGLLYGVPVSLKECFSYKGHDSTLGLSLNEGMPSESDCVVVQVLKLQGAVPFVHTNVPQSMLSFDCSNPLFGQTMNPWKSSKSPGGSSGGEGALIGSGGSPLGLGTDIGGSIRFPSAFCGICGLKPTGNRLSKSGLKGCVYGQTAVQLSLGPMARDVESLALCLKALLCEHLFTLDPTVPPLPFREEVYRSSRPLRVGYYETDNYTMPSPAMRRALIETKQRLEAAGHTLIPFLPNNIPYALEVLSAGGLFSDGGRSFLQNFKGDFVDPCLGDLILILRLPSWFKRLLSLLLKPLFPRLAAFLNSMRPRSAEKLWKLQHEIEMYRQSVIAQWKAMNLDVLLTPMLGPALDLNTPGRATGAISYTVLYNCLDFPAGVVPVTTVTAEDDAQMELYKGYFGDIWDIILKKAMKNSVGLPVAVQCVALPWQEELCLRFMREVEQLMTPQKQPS
Experiment: Determination of FAAH inhibitory activity in rat (rat brain membrane preparations, [3H]-anandamide hydrolysis)
Assay type: biochemical
Settings: rat brain membrane preparations; for inhibition at 0.1 µM: 100 nM test substance, read-out: FAAH Inhibition, Inhibition Rate at 100 nM; for IC50: test substance 0.1 nM to 1 μM, read-out: FAAH Inhibition IC50
In short: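 Rat cerebrum membranes (100 μg/mL protein) preincubated 10 min at 37 °C with compound (1% DMSO) in pH 7.6 Tris buffer with 1.5% BSA. Substrate 2 nM [3H]-anandamide plus 2 μM anandamide added for 10 min at 37 °C. [3H]-ethanolamine in the aqueous phase after chloroform/methanol extraction was scintillation counted; IC50 over 0.1 nM–1 μM.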

SMILES: COc1cccc(Cc2ncc3c(n2)n(C)c(=O)n3C(=O)N2CCCC2)c1 [Example 261, 2-(3-Methoxybenzyl)-9-methyl-7-(pyrrolidin-1-ylcarbonyl)-7,9-dihydro-8H-purine-8-one]
inhibition at 0.1 µM: 100%
IC50: 16 nM

SMILES: COc1ccc(Cc2ncc3c(n2)n(C)c(=O)n3C(=O)N2CCCC2)cc1 [Example 262, 2-(4-Methoxybenzyl)-9-methyl-7-(pyrrolidin-1-ylcarbonyl)-7,9-dihydro-8H-purine-8-one]
inhibition at 0.1 µM: 99%
IC50: 24 nM

SMILES: Cn1c(=O)n(C(=O)N2CCCC2)c2cnc(Cc3cc(F)ccc3F)nc21 [Example 267, 2-(2,5-Difluorobenzyl)-9-methyl-7-(pyrrolidin-1-ylcarbonyl)-7,9-dihydro-8H-purine-8-one]
inhibition at 0.1 µM: 99%
IC50: 23 nM

SMILES: Cn1c(=O)n(C(=O)N2CCCC2)c2cnc(Cc3cc(F)cc(F)c3)nc21 [Example 270, 2-(3,5-Difluorobenzyl)-9-methyl-7-(pyrrolidin-1-ylcarbonyl)-7,9-dihydro-8H-purine-8-one]
inhibition at 0.1 µM: 96%
IC50: 32 nM

SMILES: CCCCc1ncc2c(n1)n(C)c(=O)n2C(=O)N1CCCC1 [Example 274, 2-Butyl-9-methyl-7-(pyrrolidin-1-ylcarbonyl)-7,9-dihydro-8H-purine-8-one]
inhibition at 0.1 µM: 98%
IC50: 10 nM

SMILES: CC(C)c1ncc2c(n1)n(C)c(=O)n2C(=O)N1CCCC1 [Example 275]
inhibition at 0.1 µM: 73%
IC50: 64 nM

SMILES: CCN(C)C(=O)n1c(=O)n(C)c2nc(Cc3cccc(OC)c3)ncc21 [Example 277, N-Ethyl-2-(3-methoxybenzyl)-N,9-dimethyl-8-oxo-8,9-dihydro-7H-purine-7-carboxamide]
inhibition at 0.1 µM: 96%
IC50: 7 nM

SMILES: CCN(C)C(=O)n1c(=O)n(C)c2nc(Cc3ccccc3)ncc21 [Example 278, 2-Benzyl-N-ethyl-N,9-dimethyl-8-oxo-8,9-dihydro-7H-purine-7-carboxamide]
inhibition at 0.1 µM: 99%
IC50: 8 nM

SMILES: CCN(C)C(=O)n1c(=O)n(C)c2nc(Cc3ccc(F)cc3)ncc21 [Example 279, N-Ethyl-2-(4-fluorobenzyl)-N,9-dimethyl-8-oxo-8,9-dihydro-7H-purine-7-carboxamide]
inhibition at 0.1 µM: 98%
IC50: 3 nM

The remaining compounds from weak to strong by IC50, led by results:

inhibition at 0.1 µM: 63%
IC50: 75 nM
SMILES: CCOC(=O)CCc1ncc2c(n1)n(C)c(=O)n2C(=O)N1CCCC1 [Example 276]

inhibition at 0.1 µM: 88%
IC50: 51 nM
SMILES: Cc1ccccc1Cc1ncc2c(n1)n(C)c(=O)n2C(=O)N1CCCC1 [Example 257, 9-Methyl-2-(2-methylbenzyl)-7-(pyrrolidin-1-ylcarbonyl)-7,9-dihydro-8H-purine-8-one]

inhibition at 0.1 µM: 93%
IC50: 48 nM
SMILES: Cn1c(=O)n(C(=O)N2CCCC2)c2cnc(Cc3c(F)cccc3F)nc21 [Example 268, 2-(2,6-Difluorobenzyl)-9-methyl-7-(pyrrolidin-1-ylcarbonyl)-7,9-dihydro-8H-purine-8-one]

inhibition at 0.1 µM: 89%
IC50: 47 nM
SMILES: CC(c1ccccc1)c1ncc2c(n1)n(C)c(=O)n2C(=O)N1CCCC1 (centres unmarked) [Example 273]

inhibition at 0.1 µM: 92%
IC50: 41 nM
SMILES: Cn1c(=O)n(C(=O)N2CCCC2)c2cnc(Cc3ccc(F)cc3F)nc21 [Example 266, 2-(2,4-Difluorobenzyl)-9-methyl-7-(pyrrolidin-1-ylcarbonyl)-7,9-dihydro-8H-purine-8-one]

inhibition at 0.1 µM: 98%
IC50: 40 nM
SMILES: Cc1cccc(Cc2ncc3c(n2)n(C)c(=O)n3C(=O)N2CCCC2)c1 [Example 258, 9-Methyl-2-(3-methylbenzyl)-7-(pyrrolidin-1-ylcarbonyl)-7,9-dihydro-8H-purine-8-one]

inhibition at 0.1 µM: 98%
IC50: 9 nM
SMILES: Cn1c(=O)n(C(=O)N2CCCC2)c2cnc(Cc3ccc(-c4ccccc4)cc3)nc21 [Example 265, 2-(Biphenyl-4-ylmethyl)-9-methyl-7-(pyrrolidin-1-ylcarbonyl)-7,9-dihydro-8H-purine-8-one]
